Assay results published in patent publication US4020160A, “Cyclodextrin sulfate salts as complement inhibitors” (American Cyanamid Company, priority 1975, dated 1977).
Several values for one entry are separate records, joined by “and”; a condition that tells them apart may be missing. Equal entries are not always repeated. Structures can show the parent of a compound that is named as a salt.

What was measured:
complement system = conditions: reported in literature; cited from earlier work
[1] = reported in literature; cited from earlier work
[2] = system: late components of human complement (C3-C9); test: Test, Code 035 (C3-C9 inhibitor), lysis of EAC 142; assay type: biochemical; conditions: higher well number indicates higher activity; serial dilutions two-fold
From the text: (§1) This test measures the ability of activated human C1 to destroy fluid phase human C2 in the presence of C4 and appropriate dilutions of the test compound. An active inhibitor protects C2 from C1 and C4; (ii) Test, Code 035 (C3-C9 inhibitor) -- This test determines the ability of the late components of human complement (C3-C9) to lyse EAC 142 in the presence of appropriate dilutions of the test compound. An active inhibitor protects EAC 142 from lysis by human C3-C9; (iii) Test, Code 036 (C-Shunt inhibitor)-In this test human erythrocytes rendered fragile are lysed in autologous serum via the shunt pathway activated by cobra venom factor in the presence of appropriate dilutions of the test compound. Inhibition of the shunt pathway results in failure of lysis; (iv) Forssman Vasculitis Test -- Here, the well known complement dependent lesion, Forssman vasculitis, is produced in guinea pigs by intradermal injection of rabbit anti-Forssman antiserum. The lesion is measured in terms of diameter, edema and hemorrhage and the extent to which a combined index of these is inhibited by prior intraperitoneal injection of the test compound at 200 mg/kg is then reported, unless otherwise stated; (v) Forssman Shock Test -- Lethal shock is produced in guinea pigs by an i.v. injection of anti-Forssman antiserum and the harmonic mean death time of treated guinea pigs is compared with that of simultaneous controls; (vi) Complement Level Reduction Test -- In this test, the above dosed guinea pigs, or others, are bled for serum and the complement level is determined in undiluted serum by the capillary tube method of U.S. Pat. No. 3,876,376 and compared to undosed control guinea pigs; and (vii) Cap 50 Test -- Here, appropriate amounts of the test compound are added to a pool of guinea pig serum in vitro, after which the undiluted serum capillary tube assay referred to above is run. The concentration of compound inhibiting 50% is reported.

[3] = system: shunt pathway activated by cobra venom factor; assay type: cell-based, human; conditions: higher well number indicates higher activity; serial dilutions two-fold
From the text: as §1

activated human C1 = target: T1, activated human C1 (Homo sapiens, UniProt P09871); test: Test, Code 026 (C1 inhibitor); assay type: biochemical; conditions: higher well number indicates higher activity, serial dilutions two-fold
T1 sequence (P09871 16-437 limits assumed): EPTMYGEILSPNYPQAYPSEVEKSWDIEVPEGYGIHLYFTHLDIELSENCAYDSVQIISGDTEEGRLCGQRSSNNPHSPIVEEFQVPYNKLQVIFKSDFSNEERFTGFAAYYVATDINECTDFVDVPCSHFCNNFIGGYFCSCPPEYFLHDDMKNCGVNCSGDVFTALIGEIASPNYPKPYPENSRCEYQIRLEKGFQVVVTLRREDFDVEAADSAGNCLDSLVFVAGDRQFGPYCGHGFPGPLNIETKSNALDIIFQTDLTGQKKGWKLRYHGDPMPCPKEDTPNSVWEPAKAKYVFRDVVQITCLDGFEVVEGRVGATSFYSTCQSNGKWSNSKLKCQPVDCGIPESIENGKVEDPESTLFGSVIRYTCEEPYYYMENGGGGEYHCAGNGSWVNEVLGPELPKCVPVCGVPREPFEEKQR
T1 sequence (P09871 438-688 limits assumed): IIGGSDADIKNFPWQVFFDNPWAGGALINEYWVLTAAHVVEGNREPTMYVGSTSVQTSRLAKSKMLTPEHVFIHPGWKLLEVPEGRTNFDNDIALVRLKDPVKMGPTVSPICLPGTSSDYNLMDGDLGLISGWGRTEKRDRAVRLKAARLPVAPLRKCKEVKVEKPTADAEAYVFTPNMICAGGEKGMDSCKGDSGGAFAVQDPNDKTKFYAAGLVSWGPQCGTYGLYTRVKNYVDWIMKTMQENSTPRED
From the text: as §1

[4] = system: lethal shock by i.v. anti-Forssman antiserum; test: Forssman Shock Test; assay type: in vivo; conditions: guinea pig, at 200 mg/kg; Control=3.15 min
Method: as §1, with “An active inhibitor protects EAC 142 from lysis by human C3-C9; (iii) Test, Code 036 (C-Shunt inhibitor)-In this test human erythrocytes rendered fragile are lysed in autologous serum via the shunt pathway activated by cobra venom factor in the presence of appropriate dilutions of the test compound. Inhibition of the shunt pathway results in failure of lysis; (iv) Forssman Vasculitis Test -- Here, the well known complement dependent lesion, Forssman vasculitis, is produced in guinea pigs by intradermal injection of rabbit anti-Forssman antiserum.” left out, “The concentration of compound inhibiting 50% is reported.” left out

whole complement = test: Complement Level Reduction Test (serum of dosed guinea pigs, capillary tube assay); assay type: in vivo, guinea pig

For `Nc1ccc2cc(S(=O)(=O)O)cc(O)c2c1N=Nc1ccc(NC(=O)Nc2ccc(N=Nc3c(N)ccc4cc(S(=O)(=O)O)cc(O)c34)c(S(=O)(=O)O)c2)cc1S(=O)(=O)O` [chlorazol fast pink, 3,3'-ureylenebis-[6-(2-amino-8-hydroxy-6-sulfo-1-naphthylazo)]benzenesulfonic acid tetrasodium salt], the anticomplementary effect (complement system) is given as “anticomplementary effect”.
For `NCCCCCC(=O)O` [epsilon-aminocaproic acid], the “treatment of hereditary angioneurotic edema” value [1] is given as “used with success”.
For `NC[C@H]1CC[C@H](C(=O)O)CC1` [tranexamic acid], the “treatment of hereditary angioneurotic edema” value [1] is listed as “used with success”.
For heparin, the anticomplementary effect (complement system) is listed as “anticomplementary effect”.
For “α-Cyclodextrin polysulfate triethylammonium salt”, the “035 (C3-C9 inhibitor) activity, wells of a two-fold serial dilution assay” value [2] was “Neg”, the “036 (C-Shunt inhibitor) activity, wells of a two-fold serial dilution assay” value [3] was 3 wells and 5 wells and the “026 (C1 inhibitor) activity, wells of a two-fold serial dilution assay” value (activated human C1) was 11 wells.
With α-cyclodextrin polysulfate sodium salt the “Forsmann Shock, harmonic mean death time” value [4] was 31.1 min, the “In vivo Activity (Guinea Pig) % Inhibition” value (whole complement; 100 mg/kg i.v., time 2') was 75% and the “In vivo Activity (Guinea Pig) % Inhibition” value (whole complement; 100 mg/kg i.v., time 30') was 56%. The “In vivo Activity (Guinea Pig) % Inhibition” value (whole complement; 100 mg/kg i.v., time 120') was 39%, the “In vivo Activity (Guinea Pig) % Inhibition” value (whole complement; 200 mg/kg i.p., time 30') was 71% and the “In vivo Activity (Guinea Pig) % Inhibition” value (whole complement; 200 mg/kg i.p., time 60') was 28%. The “In vivo Activity (Guinea Pig) % Inhibition” value (whole complement; 200 mg/kg i.p., time 120') was 72%, the “035 (C3-C9 inhibitor) activity, wells of a two-fold serial dilution assay” value [2] was “Neg” and the “036 (C-Shunt inhibitor) activity, wells of a two-fold serial dilution assay” value [3] was 6 wells. The “026 (C1 inhibitor) activity, wells of a two-fold serial dilution assay” value (activated human C1) was 14 wells.
For “β-Cyclodextrin polysulfate potassium salt”, the “035 (C3-C9 inhibitor) activity, wells of a two-fold serial dilution assay” value [2] was “Neg”, the “036 (C-Shunt inhibitor) activity, wells of a two-fold serial dilution assay” value [3] was 6 wells and the “026 (C1 inhibitor) activity, wells of a two-fold serial dilution assay” value (activated human C1) was 10 wells.
For β-Cyclodextrin polysulfate sodium salt, the “Forsmann Shock, harmonic mean death time” value [4] was over 90 min, the “In vivo Activity (Guinea Pig) % Inhibition” value (whole complement; 100 mg/kg i.v., time 2') was 75% and the “In vivo Activity (Guinea Pig) % Inhibition” value (whole complement; 100 mg/kg i.v., time 30') was 45%. For the same molecule, the “In vivo Activity (Guinea Pig) % Inhibition” value (whole complement; 100 mg/kg i.v., time 120') was 27%, the “In vivo Activity (Guinea Pig) % Inhibition” value (whole complement; 200 mg/kg i.p., time 30') was 49% and the “In vivo Activity (Guinea Pig) % Inhibition” value (whole complement; 200 mg/kg i.p., time 60') was 29%. The “In vivo Activity (Guinea Pig) % Inhibition” value (whole complement; 200 mg/kg i.p., time 120') was 67% and the “026 (C1 inhibitor) activity, wells of a two-fold serial dilution assay” value (activated human C1; sodium salt) was 12 wells and 11 wells and 10 wells.
In the case of “β-Cyclodextrin polysulfate triethylammonium salt”, the “035 (C3-C9 inhibitor) activity, wells of a two-fold serial dilution assay” value [2] is reported as “Neg”, the “036 (C-Shunt inhibitor) activity, wells of a two-fold serial dilution assay” value [3] is reported as 4 wells and 6 wells and the “026 (C1 inhibitor) activity, wells of a two-fold serial dilution assay” value (activated human C1) is reported as 10 wells.
